# From patent US20250221966A1, “RXFP1 AGONISTS” (BRISTOL-MYERS SQUIBB COMPANY, priority 2021, published 2025)
# Target: T1, human RXFP1 (Homo sapiens, UniProt Q9HBX9)
# T1 construct: expressed in transfected cells
# T1 sequence (Q9HBX9 1-757): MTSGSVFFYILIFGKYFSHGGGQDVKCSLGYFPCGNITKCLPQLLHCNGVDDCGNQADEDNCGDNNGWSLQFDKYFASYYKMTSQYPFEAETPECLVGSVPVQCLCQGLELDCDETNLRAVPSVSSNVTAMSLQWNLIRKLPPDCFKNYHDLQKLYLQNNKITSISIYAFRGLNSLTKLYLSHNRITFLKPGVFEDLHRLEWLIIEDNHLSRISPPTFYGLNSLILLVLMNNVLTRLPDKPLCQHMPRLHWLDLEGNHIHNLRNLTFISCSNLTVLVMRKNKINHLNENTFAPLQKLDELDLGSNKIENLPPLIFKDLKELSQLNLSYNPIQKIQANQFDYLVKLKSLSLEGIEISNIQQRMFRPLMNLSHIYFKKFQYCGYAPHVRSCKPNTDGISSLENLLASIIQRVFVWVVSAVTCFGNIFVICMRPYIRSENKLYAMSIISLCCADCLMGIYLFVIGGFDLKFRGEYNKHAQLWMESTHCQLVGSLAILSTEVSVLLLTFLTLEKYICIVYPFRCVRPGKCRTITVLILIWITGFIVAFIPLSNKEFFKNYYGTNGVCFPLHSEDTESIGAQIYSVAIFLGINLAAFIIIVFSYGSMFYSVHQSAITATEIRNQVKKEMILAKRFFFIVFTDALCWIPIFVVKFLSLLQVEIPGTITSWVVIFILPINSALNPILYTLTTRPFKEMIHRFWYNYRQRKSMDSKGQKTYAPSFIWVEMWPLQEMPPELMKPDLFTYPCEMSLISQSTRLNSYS
# Assay: RXFP1 cAMP assay (hRXFP1 HEK293 cAMP assay, HTRF)
# Format: cell-based
# Conditions: HEK293 cells stably expressing human RXFP1, 30 min at room temperature, read-out: cAMP hRXFP1 HEK293 Assay EC50
# Procedure, shortened: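 Intracellular cAMP was read by HTRF, with potency fitted to a 4-parameter logistic curve. Compound exposure (0.010 nM–50 μM final, 2% DMSO) lasted 30 min at room temperature. Cells were hRXFP1-HEK293 at 1500 per well in IBMX-containing (0.5 mM) HEPES-buffered HBSS.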
row,SMILES,EC50
1,COCCN1CCCC1c1ccc(OC)c(C(=O)N[C@@H]2C3CCC(C3=CC3CC3)[C@@H]2C(=O)Nc2ccc(F)c(C(F)(F)F)c2)c1 (some centres unmarked) [compound 666],373 nM
2,COc1ccc(-c2cc(C(O)C(F)(F)F)ccc2F)cc1C(=O)N[C@@H]1C2CCC(/C2=C/C2CC2)[C@@H]1C(=O)Nc1ccc(F)c(C(F)(F)F)c1 (some centres unmarked) [Example 245],3 nM
3,COc1ccc(C2=NO[C@H]3COC[C@@H]23)cc1C(=O)N[C@H]1[C@@H](C(=O)Nc2ccc(F)c(C(F)(F)F)c2)[C@H]2CC[C@@H]1/C2=C\CCC(F)(F)F [compound 830],3.4 nM
4,COc1ccc(-c2ccnc(N3CCOCC3)c2F)cc1C(=O)N[C@@H]1C2CCC(/C2=C/C2CC2)[C@@H]1C(=O)Nc1ccc(F)c(C(F)(F)F)c1 (some centres unmarked) [compound 274],16 nM
5,COc1ccc(-c2cc(C(=O)NS(=O)(=O)c3ccccc3)ccc2F)cc1C(=O)N[C@@H]1C2CCC(C2=C(C)C)[C@@H]1C(=O)Nc1ccc(F)c(C(F)(F)F)c1 (some centres unmarked) [Example 150],190 nM
6,"COc1ccc(C2CC3COCC32)cc1C(=O)N[C@H]1[C@@H](C(=O)Nc2ccc(F)c(C(F)(F)F)c2)[C@H]2CC[C@@H]1/C2=C\C1CC1 (single isomer, unassigned) [compound 729]",82 nM
7,COc1ccc(C2=NOC3COCC23)cc1C(=O)N[C@H]1[C@@H](C(=O)NCc2c(Cl)cccc2Cl)[C@H]2CC[C@@H]1/C2=C\C1CC1 (some centres unmarked) [compound 570],62.7 nM
8,COc1ccc(-c2cc(C(NC(=O)C3CCOCC3)C(=O)O)ccc2F)cc1C(=O)N[C@H]1[C@@H](C(=O)Nc2ccc(F)c(C(F)(F)F)c2)[C@H]2CC[C@@H]1/C2=C\C1CC(F)(F)C1 (some centres unmarked) [compound 943],1.7 nM
9,"CCC(NC(=O)[C@@H]1[C@H](NC(=O)c2cc(C3=NOC4COCC34)ccc2OC)[C@@H]2CC[C@H]1/C2=C/C1CC1)c1ccccc1C (single isomer, unassigned) [compound 652]",278 nM
10,COc1ccc(C2=NOC3COCC23)cc1C(=O)N[C@H]1[C@@H](C(=O)NCC2CC(F)(F)C2)[C@H]2CC[C@@H]1/C2=C\C1CC1 (some centres unmarked) [compound 621],164 nM
11,COc1ccc(C2=NOC3COCC23)cc1C(=O)N[C@H]1[C@@H](C(=O)NCCC2CCC2)[C@H]2CC[C@@H]1/C2=C\C1CC1 (some centres unmarked) [compound 648],242 nM
12,COc1ccc(-c2cc(C3=NOC4COCC34)ccc2F)cc1C(=O)N[C@H]1[C@@H](C(=O)Nc2ccc(F)c(C(F)(F)F)c2)[C@H]2CC[C@@H]1/C2=C\C1CC1 (some centres unmarked) [compound 910],3.4 nM
13,COc1ccc(-c2cc(C3=NOC(CO)C3)ccc2F)cc1C(=O)N[C@H]1[C@@H](C(=O)Nc2ccc(F)c(C(F)(F)F)c2)[C@H]2CC[C@@H]1/C2=C\C1CC1 (some centres unmarked) [compound 905],7 nM
14,"COc1ccc(C2=NOC3CC(C(C)(C)O)CC23)cc1C(=O)N[C@H]1[C@@H](C(=O)Nc2ccc(F)c(C(F)(F)F)c2)[C@H]2CC[C@@H]1/C2=C\C1CC1 (single isomer, unassigned) [compound 464]",3.2 nM
15,COc1ccc(C2=NOC3COCC23)cc1C(=O)N[C@H]1[C@@H](C(=O)NCc2ccccc2OC(F)F)[C@H]2CC[C@@H]1/C2=C\C1CC1 (some centres unmarked) [compound 624],169 nM
16,COc1ccc(C2=NOC(CCO)C2CCO)cc1C(=O)N[C@H]1[C@@H](C(=O)Nc2ccc(F)c(C(F)(F)F)c2)[C@H]2CC[C@@H]1/C2=C\C1CC1 (some centres unmarked) [compound 501],11.6 nM
17,COc1ccc(C2=NO[C@H]3C[C@H](CO)CN23)cc1C(=O)N[C@H]1[C@@H](C(=O)Nc2ccc(F)c(C(F)(F)F)c2)[C@H]2CC[C@@H]1/C2=C\CCC(F)(F)F [compound 818],2.2 nM
18,COc1ccc(C2=NOC3COCC23)cc1C(=O)N[C@H]1[C@@H](C(=O)Nc2cc(OC(F)(F)F)ccc2F)[C@H]2CC[C@@H]1/C2=C\C1CC1 (some centres unmarked) [compound 762],2 nM
19,COc1ccc(-c2cc(S(=O)(=O)NC(C)(C)C)ccc2F)cc1C(=O)N[C@H]1[C@@H](C(=O)Nc2ccc(F)c(C(F)(F)F)c2)[C@H]2CC[C@@H]1/C2=C\C1CCCC1 [compound 958],0.9 nM
20,"COc1ccc(C2=NOC3(CO)CCC23CO)cc1C(=O)N[C@H]1[C@@H](C(=O)Nc2ccc(F)c(C(F)(F)F)c2)[C@H]2CC[C@@H]1/C2=C\C1CC1 (single isomer, unassigned) [compound 623]",169 nM
21,COc1ccc(C2=NOC3CC(CO)CC23)cc1C(=O)N[C@H]1[C@@H](C(=O)N[C@H](C)C2(C)CC2)[C@H]2CC[C@@H]1/C2=C\C1CC1 (some centres unmarked) [compound 766],2.7 nM
22,O=C(N[C@H]1[C@@H](C(=O)Nc2ccc(F)c(C(F)(F)F)c2)[C@H]2CC[C@@H]1/C2=C\C1CC1)c1cc(C2=NOC3COCC23)cc(F)c1OCC1CC1 (some centres unmarked) [compound 799],4.7 nM

row,SMILES,EC50
1,COc1ccc(C2=NOC3COCC23)cc1C(=O)N[C@H]1[C@@H](C(=O)Nc2ccccc2C)[C@H]2CC[C@@H]1/C2=C\C1CC1 (some centres unmarked) [compound 596],102 nM
2,COc1ccc(N2CCCC(C(=O)O)C2)cc1C(=O)N[C@@H]1C2CCC(/C2=C/c2ccccc2)[C@@H]1C(=O)Nc1ccc(F)c(C(F)(F)F)c1 (some centres unmarked) [Example 136],270 nM
3,COc1ccc(C2=NOC3CCCCCCC23)cc1C(=O)N[C@H]1[C@@H](C(=O)Nc2ccc(F)c(C(F)(F)F)c2)[C@H]2CC[C@@H]1/C2=C\C1CC1 (some centres unmarked) [compound 537],26 nM
4,CCCC/C=C1\C2CCC1[C@H](C(=O)Nc1ccc(F)c(C(F)(F)F)c1)[C@@H]2NC(=O)c1cc(C2=NOC(CO)C2)ccc1OC (some centres unmarked) [compound 383],127 nM
5,COc1cc(F)c(F)cc1C(=O)N[C@@H]1C2CCC(/C2=C/c2ccc(Cl)cc2)[C@@H]1C(=O)Nc1ccc(F)c(C(F)(F)F)c1 (some centres unmarked) [compound 21],55 nM
6,COC(=O)C(NC(C)=O)c1ccc(F)c(-c2ccc(OC)c(C(=O)N[C@@H]3C4CCC(/C4=C/C4CC4)[C@@H]3C(=O)Nc3ccc(F)c(C(F)(F)F)c3)c2)c1 (some centres unmarked) [Example 171],5 nM
7,COc1ccc(Br)cc1C(=O)NC1C2CCC(C2=C(C)C)C1C(=O)Nc1ccc(F)c(C(F)(F)F)c1 (centres unmarked) [Example 76],400 nM
8,COc1ccc(C2=NOC(CCO)C2)cc1C(=O)N[C@@H]1C2CCC(/C2=C/C2CCC2)[C@@H]1C(=O)Nc1ccc(F)c(C(F)(F)F)c1 (some centres unmarked) [compound 400],31 nM
9,COc1ccc(C2CCCN2C(=O)CCO)cc1C(=O)N[C@@H]1C2CCC(C2=CC2CC2)[C@@H]1C(=O)Nc1ccc(F)c(C(F)(F)F)c1 (some centres unmarked) [compound 634],191 nM
10,COc1ccc(C#N)cc1C(=O)N[C@H]1[C@@H](C(=O)Nc2ccc(F)c(C(F)(F)F)c2)[C@H]2CC[C@@H]1C2=C(C)C [compound 99],540 nM
11,"COc1ccc(C2=NOC(CO)C2)cc1C(=O)N[C@@H]1C2CCC(/C2=C/C2CCC2)[C@@H]1C(=O)Nc1ccc(F)c(C(F)(F)F)c1 (single isomer, unassigned) [Example 379]",26 nM
12,CCCCNC(=O)[C@@H]1[C@H](NC(=O)c2cc(C3=NOC4COCC34)ccc2OC)[C@@H]2CC[C@H]1/C2=C/C1CC1 (some centres unmarked) [compound 614],138 nM
13,COc1ccc(C2=NOC(CO)C2)cc1C(=O)N[C@@H]1C2CCC(/C2=C/C2CC2)[C@@H]1C(=O)Nc1ccc(F)c(C(F)(F)F)c1 (some centres unmarked) [compound 382],118 nM
14,COc1ccc(C2=NOC(C(N)=O)C2)cc1C(=O)N[C@@H]1C2CCC(/C2=C/C2CC2)[C@@H]1C(=O)Nc1ccc(F)c(C(F)(F)F)c1 (some centres unmarked) [compound 404],45 nM
15,COc1cc(F)c(F)cc1C(=O)N[C@@H]1C2CCC(/C2=C/c2cccnc2)[C@@H]1C(=O)Nc1ccc(F)c(C(F)(F)F)c1 (some centres unmarked) [compound 22],700 nM
16,COc1ccc(-c2cc(C(=O)O)ccc2F)cc1C(=O)N[C@@H]1C2CCC(/C2=C/C2CC2)[C@@H]1C(=O)NCc1cccc(C(F)(F)F)c1 (some centres unmarked) [compound 264],3180 nM
17,COc1ccc(-c2cc(C(OC(=O)NC34CC(C3)C4)C(F)F)ccc2F)cc1C(=O)N[C@@H]1C2CCC(/C2=C/C2CC2)[C@@H]1C(=O)Nc1ccc(F)c(C(F)(F)F)c1 (some centres unmarked) [compound 232],1 nM
18,COc1ccc(-c2cc([C@H](NC(=O)C3CCOCC3)C(F)(F)F)ccc2F)cc1C(=O)N[C@H]1[C@@H](C(=O)Nc2ccc(F)c(C(F)(F)F)c2)[C@H]2CC[C@@H]1/C2=C\C1CCCC1 [compound 955],0.1 nM
19,CNC(=O)c1ccc(F)c(-c2ccc(OC)c(C(=O)N[C@H]3[C@@H](C(=O)Nc4ccc(F)c(C(F)(F)F)c4)[C@H]4CC[C@@H]3C4=C(C)C)c2)c1 [compound 151],240 nM
20,COc1ccc(F)cc1C(=O)N[C@@H]1C2CCC(C2=C(C)C)[C@@H]1C(=O)Nc1ccc(F)c(C(F)(F)F)c1 (some centres unmarked) [compound 111],860 nM
21,COc1ccc(C2=NOC(C(=O)O)C2)cc1C(=O)N[C@@H]1C2CCC(/C2=C/C2CCC2)[C@@H]1C(=O)Nc1ccc(F)c(C(F)(F)F)c1 (some centres unmarked) [compound 388],152 nM

# Same assay, conditions: cAMP hRXFP1 HEK293 Assay EC50, HEK293 cells stably expressing human RXFP1, 30 min at room temperature
row,SMILES,EC50
1,COc1ccc(-c2cc(C(=O)O)ccc2F)cc1C(=O)N[C@H]1[C@@H](C(=O)Nc2ccc(F)c(C(F)(F)F)c2)[C@H]2CC[C@@H]1/C2=C/c1ccccc1 [compound 91],360 nM
